Reference: ChEMBL document CHEMBL3046595, “Novel furoxan NO-donor pemetrexed derivatives: design, synthesis, and preliminary biological evaluation” (2009)

Legend:
Assay type in all cases: functional
A549 [1] = assay: Cytotoxicity against Homo sapiens (human) A549 cells at 0.1 x 10^-6 mol/L after 48 hr by MTT assay; conditions: A549, 48 h
SMMC-7721 [2] = assay: Cytotoxicity against Homo sapiens (human) SMMC7721 cells at 0.1 x 10^-6 mol/L after 48 hr by MTT assay; conditions: SMMC-7721, 48 h
A549 [3] = assay: Cytotoxicity against Homo sapiens (human) A549 cells at 1 x 10^-6 mol/L after 48 hr by MTT assay; conditions: A549, 48 h
A549 [4] = assay: Cytotoxicity against Homo sapiens (human) A549 cells at 10 x 10^-6 mol/L after 48 hr by MTT assay; conditions: A549, 48 h
BGC-823 [5] = assay: Cytotoxicity against Homo sapiens (human) BGC823 cells at 0.1 x 10^-6 mol/L after 48 hr by MTT assay; conditions: BGC-823, 48 h
BGC-823 [6] = assay: Cytotoxicity against Homo sapiens (human) BGC823 cells at 10 x 10^-6 mol/L after 48 hr by MTT assay; conditions: BGC-823, 48 h
HL-60 [7] = assay: Cytotoxicity against Homo sapiens (human) HL60 cells at 10 x 10^-6 mol/L after 48 hr by MTT assay; conditions: HL-60, 48 h
BGC-823 [8] = assay: Cytotoxicity against Homo sapiens (human) BGC823 cells at 1 x 10^-6 mol/L after 48 hr by MTT assay; conditions: BGC-823, 48 h
HL-60 [9] = assay: Cytotoxicity against Homo sapiens (human) HL60 cells at 1 x 10^-6 mol/L after 48 hr by MTT assay; conditions: HL-60, 48 h
SMMC-7721 [10] = assay: Cytotoxicity against Homo sapiens (human) SMMC7721 cells at 1 x 10^-6 mol/L after 48 hr by MTT assay; conditions: SMMC-7721, 48 h
SMMC-7721 [11] = assay: Cytotoxicity against Homo sapiens (human) SMMC7721 cells at 10 x 10^-6 mol/L after 48 hr by MTT assay; conditions: SMMC-7721, 48 h
HL-60 [12] = assay: Cytotoxicity against Homo sapiens (human) HL60 cells at 0.1 x 10^-6 mol/L after 48 hr by MTT assay; conditions: HL-60, 48 h

| SMILES | inhibition at 0.1 µM (A549 [1]) [%] | inhibition at 0.1 µM (SMMC-7721 [2]) [%] | inhibition at 1 µM (A549 [3]) [%] | inhibition at 10 µM (A549 [4]) [%] | inhibition at 0.1 µM (BGC-823 [5]) [%] | inhibition at 10 µM (BGC-823 [6]) [%] | inhibition at 10 µM (HL-60 [7]) [%] | inhibition at 1 µM (BGC-823 [8]) [%] | inhibition at 1 µM (HL-60 [9]) [%] | inhibition at 1 µM (SMMC-7721 [10]) [%] | inhibition at 10 µM (SMMC-7721 [11]) [%] | inhibition at 0.1 µM (HL-60 [12]) [%] |
| --- | --- | --- | --- | --- | --- | --- | --- | --- | --- | --- | --- | --- |
| CCOC(=O)[C@H](CCC(=O)OCCCOc1no[n+]([O-])c1S(=O)(=O)c1ccccc1)NC(=O)c1ccc(CCc2c[nH]c3[nH]c(N)nc(=O)c23)cc1 | < 50 | < 50 | < 50 | < 50 | < 50 | < 50 | < 50 | < 50 | 50 | < 50 | < 50 | < 50 |
| CCOC(=O)[C@H](CCC(=O)OCCCCCCOc1no[n+]([O-])c1S(=O)(=O)c1ccccc1)NC(=O)c1ccc(CCc2c[nH]c3[nH]c(N)nc(=O)c23)cc1 | < 50 | < 50 | < 50 | < 50 | < 50 | < 50 | < 50 | 50 | > 80 | > 80 | < 50 | < 50 |
| CCOC(=O)[C@H](CCC(=O)OCCOc1no[n+]([O-])c1S(=O)(=O)c1ccccc1)NC(=O)c1ccc(CCc2c[nH]c3[nH]c(N)nc(=O)c23)cc1 | < 50 | < 50 | < 50 | < 50 | < 50 | < 50 | < 50 | < 50 | 50 | < 50 | < 50 | < 50 |
| CCOC(=O)[C@H](CCC(=O)OCCCCOc1no[n+]([O-])c1S(=O)(=O)c1ccccc1)NC(=O)c1ccc(CCc2c[nH]c3[nH]c(N)nc(=O)c23)cc1 | < 50 | < 50 | < 50 | < 50 | < 50 | < 50 | < 50 | > 80 | 50 | > 80 | < 50 | 50 |
| Nc1nc2[nH]cc(CCc3ccc(C(=O)N[C@@H](CCC(=O)O)C(=O)O)cc3)c2c(=O)[nH]1 [PEMETREXED DISODIUM] | < 50 | < 50 | < 50 | < 50 | < 50 | 50 | > 80 | < 50 | > 80 | < 50 | < 50 | 50 |
| CCOC(=O)[C@H](CCC(=O)OCC#CCOc1no[n+]([O-])c1S(=O)(=O)c1ccccc1)NC(=O)c1ccc(CCc2c[nH]c3[nH]c(N)nc(=O)c23)cc1 | < 50 | < 50 | < 50 | < 50 | < 50 |  | 50 | 50 | > 80 | 50 | < 50 | < 50 |
| CCOC(=O)[C@H](CCC(=O)OCCCCCOc1no[n+]([O-])c1S(=O)(=O)c1ccccc1)NC(=O)c1ccc(CCc2c[nH]c3[nH]c(N)nc(=O)c23)cc1 | < 50 | < 50 | 50 | < 50 | 50 | < 50 | < 50 | 50 | > 80 | < 50 | < 50 | > 80 |
| CCOC(=O)[C@H](CCC(=O)OC(C)COc1no[n+]([O-])c1S(=O)(=O)c1ccccc1)NC(=O)c1ccc(CCc2c[nH]c3[nH]c(N)nc(=O)c23)cc1 (stereo partly drawn) | < 50 | < 50 | < 50 | < 50 | < 50 | < 50 | < 50 | > 80 | > 80 | < 50 | < 50 | > 80 |
| CCOC(=O)[C@H](CCC(=O)OCCOCCOc1no[n+]([O-])c1S(=O)(=O)c1ccccc1)NC(=O)c1ccc(CCc2c[nH]c3[nH]c(N)nc(=O)c23)cc1 | < 50 | < 50 | < 50 |  | < 50 |  |  | < 50 | > 80 | < 50 |  | < 50 |
